In patent US20160176867A1, “MODIFIED BET-PROTEIN-INHIBITING DIHYDROQUINOXALINONES AND DIHYDROPYRIDOPYRAZINONES” (BAYER PHARMA AKTIENGESELLSCHAFT, priority 2013, published 2016):

What was measured:
[1] = target: T1, BRD4 bromo domain 1 [BRD4(1)] (Homo sapiens, UniProt O60885); assay: BRD4/acetylated peptide H4 binding assay (TR-FRET), BRD4 bromo domain 1; settings: inhibition of BRD4(1)/Ac-H4 peptide interaction
T1 construct: N-terminally His6-tagged BRD4(1) (amino acids 67-152); made in house; host or cells: E. coli
In short: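 TR-FRET (665/620 nm ratio) measuring displacement of biotinylated tetra-acetylated H4 peptide from His6-BRD4(1) (aa 67-152, E. coli; typically 10 nM) at pH 7.5. Compound (11 concentrations, 0.1 nM–20 μM, duplicates) was preincubated 10 min at 22°C, then 1 h at 22°C and ≥3 h at 4°C; IC50 from 4-parameter fit normalized to DMSO and no-BRD4 controls.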

[2] = target: T2, BRD4 bromo domain 2 [BRD4(2)] (Homo sapiens, UniProt O60885); assay: BRD4/acetylated peptide H4 binding assay (TR-FRET), BRD4 bromo domain 2; settings: inhibition of BRD4(2)/Ac-H4 peptide interaction
T2 construct: N-terminally His6-tagged BRD4(2) (amino acids 357-445); made in house; host or cells: E. coli
In short: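 Binding of His6-BRD4(2) (aa 357-445, 100 nM final) to biotinylated tetra-acetylated H4 peptide read by TR-FRET (665/620 nm). Compound preincubated 10 min at 22 °C, then 1 h at 22 °C plus ≥3 h at 4 °C. Eleven concentrations (0.1 nM–20 μM) in duplicate; IC50 by 4-parameter fit.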

SMILES | IC50 [1] | IC50 [2]
C[C@@H]1C(=O)N(C)c2ccc(Nc3cccc(C(=O)NC4CCN(C)CC4)c3)nc2N1C1CCN(C(=O)OC(C)(C)C)CC1 [Example 100, tert-butyl 4-[(3R)-1,3-dimethyl-6-({3-[(1-methylpiperidin-4-yl)carbamoyl]phenyl}amino)-2-oxo-2,3-dihydropyrido[2,3-b]pyrazin-4(1H)-yl]piperidine-1-carboxylate] | 555 nM | 462 nM
COCCN1c2nc(Nc3cccc(C(=O)N4CCN(C)CC4)c3)ccc2N(C)C(=O)[C@@H]1C (stereo in doubt) [Example 118, (3S)-4-(2-methoxyethyl)-1,3-dimethyl-6-({3-[(4-methylpiperazin-1-yl)carbonyl]phenyl}amino)-3,4-dihydropyrido[2,3-b]pyrazin-2(1H)-one] | 18200 nM | > 40000 nM
COc1ccc(Nc2ccc3c(n2)N(C2CCOCC2)[C@H](C)C(=O)N3C)cc1C(=O)N[C@H]1CC[C@H](N2CCN(CC3CC3)CC2)CC1 [Example 82, N-{trans-4-[4-(cyclo-propylmethyl)piperazin-1-yl]cyclohexyl}-5-{[(3R)-1,3-dimethyl-2-oxo-4-(tetrahydro-2H-pyran-4-yl)-1,2,3,4-tetrahydropyrido[2,3-b]pyrazin-6-yl]amino}-2-methoxybenzamide] | 218 nM | 337 nM
C[C@@H]1C(=O)N(C)c2ccc(Nc3cccc(S(=O)(=O)N4CCN(C)CC4)c3)nc2N1C1CCN(C(=O)OC(C)(C)C)CC1 [Example 62, tert-butyl 4-[(3R)-1,3-dimethyl-6-({3-[(4-methylpiperazin-1-yl)sulphonyl]phenyl}-amino)-2-oxo-2,3-dihydropyrido[2,3-b]pyrazin-4(1H)-yl]piperidine-1-carboxylate] | 256 nM | 133 nM
C[C@@H]1C(=O)N(C)c2ccc(Nc3cccc(C(=O)N4CCN(C)CC4)c3)nc2N1C1CCNCC1 [Example 130, (3R)-1,3-dimethyl-6-({3-[(4-methylpiperazin-1-yl)carbonyl]phenyl}amino)-4-(piperidin-4-yl)-3,4-dihydropyrido[2,3-b]pyrazin-2(1H)-one] | 206 nM | 178 nM
CC(C)N1c2nc(Nc3cccc(C(=O)NCCN(C)C)c3)ccc2N(C)C(=O)[C@H]1C [Example 97, N-[2-(dimethylamino)ethyl]-3-{[(3R)-4-isopropyl-1,3-dimethyl-2-oxo-1,2,3,4-tetrahydropyrido[2,3-b]pyrazin-6-yl]amino}benzamide] | 503 nM | 179 nM
CCN(CC)S(=O)(=O)c1cccc(Nc2ccc3c(n2)N(C2CCOCC2)[C@H](C)C(=O)N3C)c1 [Example 32, 3-{[(3R)-1,3-dimethyl-2-oxo-4-(tetrahydro-2H-pyran-4-yl)-1,2,3,4-tetrahydropyrido[2,3-b]pyrazin-6-yl]amino}-N,N-diethylbenzene-sulphonamide] | 22 nM | 39 nM
C[C@@H]1C(=O)N(C)c2ccc(Nc3cccc(C(=O)N[C@H]4CC[C@H](N5CCN(CC6CC6)CC5)CC4)c3)cc2N1Cc1c(F)cccc1F [Example 22, N-{trans-4-[4-(Cyclopropylmethyl)piperazin-1-yl]cyclohexyl}-3-{[4-(2,6-difluorobenzyl)-1,3-dimethyl-2-oxo-1,2,3,4-tetrahydroquinoxalin-6-yl]amino}benzamide] | 708 nM | 157 nM
C[C@@H]1C(=O)N(C)c2ccc(Nc3cccc(C(=O)NC4CCN(C)CC4)c3)nc2N1C1CCCCC1 [Example 95, 3-{[(3R)-4-cyclohexyl-1,3-dimethyl-2-oxo-1,2,3,4-tetrahydropyrido[2,3-b]pyrazin-6-yl]amino}-N-(1-methylpiperidin-4-yl)benzamide] | 475 nM | 277 nM
C[C@@H]1C(=O)N(C)c2ccc(Nc3cccc(C(=O)NC4CCN(C)CC4)c3)cc2N1C1CCOCC1 [Example 109, 3-{[(3R)-1,3-dimethyl-2-oxo-4-(tetrahydro-2H-pyran-4-yl)-1,2,3,4-tetrahydroquinoxalin-6-yl]amino}-N-(1-methylpiperidin-4-yl)benzamide] | 521 nM | 1120 nM
C[C@@H]1C(=O)N(C)c2ccc(Nc3cccc(C(=O)N[C@H]4CC[C@H](N5CCN(CC6CC6)CC5)CC4)c3)nc2N1C1CCN(C(=O)OC(C)(C)C)CC1 [Example 102, tert-butyl 4-[(3R)-6-{[3-({trans-4-[4-(cyclopropl-methyl)piperazin-1-yl]cyclohexyl}carbamoyl)phenyl]amino}-1,3-dimethyl-2-oxo-2,3-dihydropyrido[2,3-b]pyrazin-4(1H)-yl]piperidine-1-carboxylate] | 788 nM | 687 nM
COc1ccc(C(=O)N2CCN(C)CC2)cc1Nc1ccc2c(n1)N(C1CCOCC1)[C@H](C)C(=O)N2C [Example 17, (3R)-6-({2-Methoxy-5-[(4-methylpiperazin-1-yl)carbonyl]phenyl}amino)-1,3-dimethyl-4-(tetrahydro-2H-pyran-4-yl)-3,4-dihydropyrido[2,3-b]pyrazin-2(1H)-one] | 129 nM | 60 nM
C[C@@H]1C(=O)N(C)c2ccc(Nc3cccc(C(=O)NC4CCN(C)CC4)c3)nc2N1C1CCC(C)(C)CC1 [Example 96, 3-{[(3R)-4-(4,4-dimethylcyclohexyl)-1,3-dimethyl-2-oxo-1,2,3,4-tetrahydropyrido[2,3-b]pyrazin-6-yl]amino}-N-(1-methylpiperidin-4-yl)benzamide] | 501 nM | 573 nM
C[C@@H]1C(=O)N(C)c2ccc(Nc3cccc(C(=O)NC4CCC(O)CC4)c3)nc2N1C1CCCCC1 (stereo partly drawn) [Example 86, 3-{[(3R)-4-cyclohexyl-1,3-dimethyl-2-oxo-1,2,3,4-tetrahydropyrido[2,3-b]pyrazin-6-yl]amino}-N-(4-hydroxycyclohexyl)-benzamide] | 322 nM | 127 nM
C[C@@H]1C(=O)N(C)c2ccc(Nc3cccc(C(=O)N4CCN(C)CC4)c3)cc2N1C1CCOCC1 [Example 106, (3R)-1,3-dimethyl-6-({3-[(4-methylpiperazin-1-yl)carbonyl]phenyl}amino)-4-(tetrahydro-2H-pyran-4-yl)-3,4-dihydroquinoxalin-2(1H)-one] | 357 nM | 817 nM
C[C@H]1C(=O)N(C)c2ccc(Nc3cccc(C(=O)NC4CCN(C)CC4)c3)nc2N1c1ccc(F)cc1 (stereo in doubt) [Example 116, 3-{[(3S)-4-(4-fluorophenyl)-1,3-dimethyl-2-oxo-1,2,3,4-tetrahydropyrido[2,3-b]pyrazin-6-yl]amino}-N-(1-methylpiperidin-4-yl)benzamide] | 6750 nM | > 40000 nM
COc1c(Nc2ccc3c(n2)N(C2CCOCC2)[C@H](C)C(=O)N3C)cccc1C(=O)N1CCN(C)CC1 [Example 92, (3R)-6-({2-methoxy-3-[(4-methylpiperazin-1-yl)carbonyl]phenyl}-amino)-1,3-dimethyl-4-(tetrahydro-2H-pyran-4-yl)-3,4-dihydropyrido[2,3-b]pyrazin-2(1H)-one] | 452 nM | 579 nM
COc1ccc(Nc2ccc3c(n2)N(C2CCOCC2)[C@H](C)C(=O)N3C)cc1C(=O)N1CCN(C)CC1 [Example 83, (3R)-6-({4-methoxy-3-[(4-methylpiperazin-1-yl)carbonyl]phenyl}-amino)-1,3-dimethyl-4-(tetrahydro-2H-pyran-4-yl)-3,4-dihydropyrido[2,3-b]pyrazin-2(1H)-one] | 218 nM | 227 nM
